Tested on: AZ21
Assay: Biolayer interferometry, Ab59 binding to immobilized AZ21
Procedure: Binding kinetics between BCl-2 fusion protein Ab59 and AZ-21 was assayed by biolayer interferometry. […] Curves represent measured data points on an Octet RED384.

AZ21, sequence (P10415 1-207 C158A limits assumed): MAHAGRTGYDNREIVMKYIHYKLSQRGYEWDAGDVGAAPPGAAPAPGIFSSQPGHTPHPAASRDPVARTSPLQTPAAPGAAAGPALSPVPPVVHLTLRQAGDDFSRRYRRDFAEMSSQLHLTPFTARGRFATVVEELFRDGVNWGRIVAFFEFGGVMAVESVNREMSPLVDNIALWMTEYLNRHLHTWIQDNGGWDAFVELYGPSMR

Ab59: heterodimeric Fc fusion protein: BCl-2 C158A linked to a human IgG1 Fc, plus a second human IgG1 Fc domain
binding to AZ21 in the presence of ABT-199 (with ABT-199, FIG. 25B): potent and reversible binding | binding to AZ21 in the absence of ABT-199 (without ABT-199, FIG. 25B): no significant binding
